In this assay the target is Endothelin-1 receptor (Rattus norvegicus) (UniProt P26684). As to the kind of experiment: Ability to block the ET-1-induced hydrolysis of inositol phosphate in Endothelin A receptor of MMQ cells.

This passage reports IC50 results from BindingDB's records for doi:10.1021/jm970101g (Abbott Laboratories, 1997).

Chain of Endothelin-1 receptor (Rattus norvegicus) (P26684 whole entry, looked up): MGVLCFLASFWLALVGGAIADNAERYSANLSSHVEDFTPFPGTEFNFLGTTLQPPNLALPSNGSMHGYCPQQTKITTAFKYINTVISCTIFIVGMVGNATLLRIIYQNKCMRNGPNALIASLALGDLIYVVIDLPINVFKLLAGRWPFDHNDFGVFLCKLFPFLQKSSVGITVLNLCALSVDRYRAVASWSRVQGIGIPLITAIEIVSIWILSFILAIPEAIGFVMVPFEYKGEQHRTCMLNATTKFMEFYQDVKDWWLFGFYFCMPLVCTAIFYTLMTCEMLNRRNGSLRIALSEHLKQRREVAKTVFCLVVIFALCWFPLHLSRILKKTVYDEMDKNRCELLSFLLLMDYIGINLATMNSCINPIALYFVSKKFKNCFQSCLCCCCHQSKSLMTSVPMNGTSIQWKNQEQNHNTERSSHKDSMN

As a reminder, the IC50 is the concentration that inhibits the measured activity by half. Read a high IC50 as weaker potency. For `CCCN(CCN1C[C@H](c2ccc3c(c2)OCO3)[C@@H](C(=O)O)[C@@H]1c1ccc(OC)c(F)c1)S(=O)(=O)CCCCl` [(2R,3R,4S)-4-Benzo[1,3]dioxol-5-yl-1-{2-[(3-chloro-propane-1-sulfonyl)-propyl-amino]-ethyl}-2-(3-fluoro-4-methoxy-phenyl)-pyrrolidine-3-carboxylic acid], the IC50 turned out to be 0.55 nM.
